molecular target: T1, Ba/F3 cell EGFR Exon20 ins NPH (Homo sapiens, UniProt P00533, INS773NPH); experiment: Ba/F3 cell proliferation suppression, EGFR Exon20 ins NPH; assay type: cell-based; conditions: GI50 class; Ba/F3 cell line with NPH inserted at Exon20 of EGFR; 72 hours
T1 construct: expressed in transfected cells; host or cells: Ba/F3
Procedure, shortened: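 Seed 3000–5000 cells/well; after 24 h add compound (12 conc., 0.3 nM–50 um final); incubate 72 h; add CellTiter-Glo, 10 min room temperature; read luminescence; GI50 from % growth vs control, triplicate.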

| Compound | Ba/F3 (NPH) Activity |
| --- | --- |
| C=CC(=O)Nc1cc(Nc2cc(N3OCC[C@@H]3c3ccc(C)nc3)ncn2)c(OC)cc1N1CCN(C)CC1 [Example 44, N-(4-methoxy-2-(4-methylpiperazine-1-yl)-5-((6-((R)-3-(6-methylpyridine-3-yl)isoxazolidine-2-yl)pyrimidine-4-yl)amino)phenyl) acrylamide] | B (50 nM ≤ GI50 < 500 nM) |
| C=CC(=O)Nc1cc(Nc2cc(N3OCC[C@@H]3Cc3ccccc3)ncn2)c(OC)cc1-n1ccnc1C [compound 960, N-(5-((6-((S)-3-benzylisoxazolidine-2-yl)pyrimidine-4-yl)amino)-4-methoxy-2-(2-methyl-1H-imidazole-1-yl)phenyl)acrylamide] | B (50 nM ≤ GI50 < 500 nM) |
| C=CC(=O)Nc1cc(Nc2cc(N3OCC[C@@H]3c3ccc(Cl)c(Cl)c3F)ncn2)c(OC)cc1N1CCC(N2C[C@H]3C[C@@H]2CO3)CC1 [Example 268, N-(2-(4-((1R,4R)-2-oxa-5-azabicyclo[2.2.1]heptane-5-yl)piperidine-1-yl)-5-((6-((R)-3-(3,4-dichloro-2-fluorophenyl)isoxazolidine-2-yl)pyrimidine-4-yl)amino)-4-methoxyphenyl) acrylamide] | A (GI50 < 50 nM) |
| C=CC(=O)Nc1cc(Nc2cc(N3OCC[C@@H]3c3cc(F)ccc3F)ncn2)c(OC)cc1N1C[C@@H](C)N(CC)[C@@H](C)C1 [compound 878, N-(5-((6-((R)-3-(2,5-difluorophenyl)isoxazolidine-2-yl)pyrimidine-4-yl)amino)-2-((3S,5R)-4-ethyl-3,5-dimethylpiperazine-1-yl)-4-methoxyphenyl) acrylamide] | A (GI50 < 50 nM) |
| C=CC(=O)Nc1cc(Nc2cc(N3OCC[C@@H]3Cc3cccnc3)ncn2)c(OC)cc1N1CCC(N2CCN(C3CC3)[C@@H](C)C2)CC1 [compound 1057, N-(2-(4-((S)-4-cyclopropyl-3-methylpiperazine-1-yl)piperidine-1-yl)-4-methoxy-5-((6-((S)-3-(pyridine-3-ylmethyl)isoxazolidine-2-yl)pyrimidine-4-yl)amino)phenyl)acrylamide] | B (50 nM ≤ GI50 < 500 nM) |
| C=CC(=O)Nc1cc(Nc2cc(N3OCC[C@@H]3c3cccc(C(F)(F)F)c3)ncn2)c(OC)cc1N1CCC(N(C)C)CC1 [compound 451, N-(2-(4-(dimethlamino)piperidine-1-yl)-4-methoxy-5-((6-((R)-3-(3-(trifluoromethyl)phenyl)isoxazolidine-2-yl)pyrimidine-4-yl)amino)phenyl) acrylamide] | A (GI50 < 50 nM) |
| C=CC(=O)Nc1cc(Nc2cc(N3OCC[C@@H]3c3ccc(C)nc3)ncn2)c(OC)cc1N1CC[C@@H](N(C)C)C1 [Example 221, N-(2-((R)-3-(dimethylamino)pyrolidine-1-yl)-4-methoxy-5-((6-((R)-3-(6-methylpyridine-3-yl)isoxazolidine-2-yl)pyrimidine-4-yl)amino)phenyl) acrylamide] | B (50 nM ≤ GI50 < 500 nM) |
| C=CC(=O)Nc1cc(Nc2cc(N3OCC[C@@H]3c3cccc(Cl)c3Cl)ncn2)c(OC)cc1N(C)CCN(C)C [compound 516, N-(5-((6-((R)-3-(2,3-dichlorophenyl)isoxazolidine-2-yl)pyrimidine-4-yl)amino)-2-((2-(dimethylamino)ethyl)(methyl)amino)-4-methoxyphenyl) acrylamide] | A (GI50 < 50 nM) |
| C=CC(=O)Nc1cc(Nc2cc(N3OCC[C@@H]3c3ccc(F)cc3F)ncn2)c(OC)cc1N1C[C@@H]2C[C@H]1CN2CC [compound 354, N-(5-((6-((R)-3-(2,4-difluorophenyl)isoxazolidine-2-yl)pyrimidine-4-yl)amino)-2-((1S,4S)-5-ethyl-2,5-diazabicyclo[2.2.1]heptane-2-yl)-4-methoxyphenyl) acrylamide] | A (GI50 < 50 nM) |
| C=CC(=O)Nc1cc(Nc2cc(N3OCC[C@@H]3c3cccc4ccccc34)ncn2)c(OC)cc1N1CCC(N2CCO[C@@H](C)C2)CC1 [compound 535, N-(4-methoxy-2-(4-((S)-2-methylmorpholino)piperidine-1-yl)-5-((6-((R)-3-(naphthalene-1-yl)isoxazolidine-2-yl)pyrimidine-4-yl)amino)phenyl)acrylamide] | A (GI50 < 50 nM) |

Second part, the compound after the results:

| Ba/F3 (NPH) Activity | Compound |
| --- | --- |
| A (GI50 < 50 nM) | C=CC(=O)Nc1cc(Nc2cc(N3OCC[C@@H]3c3ccc(F)cc3F)ncn2)c(OC)cc1N1CCN(C)CC1 [compound 326, N-(5-((6-((R)-3-(2,4-difluorophenyl)isoxazolidine-2-yl)pyrimidine-4-yl)amino)-4-methoxy-2-(4-methylpiperazine-1-yl)phenyl)acrylamide] |
| A (GI50 < 50 nM) | C=CC(=O)Nc1cc(Nc2cc(N3OCC[C@@H]3c3cc(F)ccc3F)ncn2)c(OC)cc1N1CCC(N2CCN(C3CCCC3)CC2)CC1 [Example 100, N-(2-(4-(4-cyclopentylpiperazine-1-yl)piperidine-1-yl)-5-((6-((R)-3-(2,5-difluorophenyl)isoxazolidine-2-yl)pyrimidine-4-yl)amino)-4-methoxyphenyl) acrylamide] |
| A (GI50 < 50 nM) | C=CC(=O)Nc1cc(Nc2cc(N3OCC[C@@H]3c3c(F)ccc(F)c3Cl)ncn2)c(OC)cc1N1CCC(N2C[C@H]3C[C@@H]2CO3)CC1 [compound 692, N-(2-(4-((1R,4R)-2-oxa-5-azabicyclo[2.2.1]heptane-5-yl)piperidine-1-yl)-5-((6-((R)-3-(2-chloro-3,6-difluorophenyl)isoxazolidine-2-yl)pyrimidine-4-yl)amino)-4-methoxyphenyl) acrylamide] |
| A (GI50 < 50 nM) | C=CC(=O)Nc1cc(Nc2cc(N3OCC[C@@H]3c3cccc(Cl)c3)ncn2)c(OC)cc1N1CCC(N2C[C@@H]3C[C@H]2CO3)CC1 [compound 462, N-(2-(4-((1S,4S)-2-oxa-5-azabicyclo [2.2.1]heptane-5-yl)piperidine-1-yl)-5-((6-((R)-3-(3-chlorophenyl)isoxazolidine-2-yl)pyrimidine-4-yl)amino)-4-methoxyphenyl) acrylamide] |
| A (GI50 < 50 nM) | C=CCN1CCN(C2CCN(c3cc(OC)c(Nc4cc(N5OCC[C@@H]5c5cccc(F)c5F)ncn4)cc3NC(=O)C=C)CC2)CC1 [Example 209, N-(2-(4-(4-allylpiperazine-1-yl)piperidine-1-yl)-5-((6-((R)-3-(2,3-difluorophenyl)isoxazolidine-2-yl)pyrimidine-4-yl)amino)-4-methoxyphenyl) acrylamide] |
| C (500 nM ≤ GI50 < 5000 nM) | C=CC(=O)Nc1cc(Nc2cc(N3OCC[C@H]3c3c(F)cccc3F)ncn2)c(OC)cc1N1CCC(N2CCN(C(C)=O)CC2)CC1 [compound 310, N-(2-(4-(4-acetylpiperazine-1-yl)piperidine-1-yl)-5-((6-((S)-3-(2,6-difluorophenyl)isoxazolidine-2-yl)pyrimidine-4-yl)amino)-4-methoxyphenyl) acrylamide] |
| A (GI50 < 50 nM) | C=CC(=O)Nc1cc(Nc2cc(N3OCC[C@@H]3c3ccc(Cl)c(F)c3)ncn2)c(OC)cc1N1CCC(N2C[C@H]3C[C@@H]2CO3)CC1 [Example 256, N-(2-(4-((1R,4R)-2-oxa-5-azabicyclo[2.2.1]heptane-5-yl)piperidine-1-yl)-5-((6-((R)-3-(4-chloro-3-fluorophenyl)isoxazolidine-2-yl)pyrimidine-4-yl)amino)-4-methoxyphenyl) acrylamide] |
| A (GI50 < 50 nM) | C=CC(=O)Nc1cc(Nc2cc(N3OCC[C@@H]3c3cc(F)cc(F)c3)ncn2)c(OC)cc1N1CCC(N2C[C@@H]3CCN(C)[C@@H]3C2)CC1 [compound 446, N-(5-((6-((R)-3-(3,5-difluorophenyl)isoxazolidine-2-yl)pyrimidine-4-yl)amino)-4-methoxy-2-(4-((3aS,6aS)-1-methylhexahydropyrrolo [3,4-b]pyrrole-5(1H)-yl)piperidine-1-yl)phenyl)acrylamide] |
| A (GI50 < 50 nM) | C=CC(=O)Nc1cc(Nc2cc(N3OCC[C@@H]3c3cc(F)ccc3F)ncn2)c(OC)cc1N1CCC(N2CCN(C)[C@H](C)C2)CC1 [compound 851, N-(5-((6-((R)-3-(2,5-difluorophenyl)isoxazolidine-2-yl)pyrimidine-4-yl)amino)-2-(4-((R)-3,4-dimethylpiperazine-1-yl)piperidine-1-yl)-4-methoxyphenyl) acrylamide] |
| A (GI50 < 50 nM) | C=CC(=O)Nc1cc(Nc2cc(N3OCC[C@@H]3c3ccc(F)c(F)c3)ncn2)c(OC)cc1N1CCC(N2CCN(C3CCC3)CC2)CC1 [Example 186, N-(2-(4-(4-cyclobutylpiperazine-1-yl)piperidine-1-yl)-5-((6-((R)-3-(3,4-difluorophenyl)isoxazolidine-2-yl)pyrimidine-4-yl)amino)-4-methoxyphenyl) acrylamide] |
| B (50 nM ≤ GI50 < 500 nM) | C=CC(=O)Nc1cc(Nc2cc(N3OCC[C@@H]3c3cccc(Cl)c3Cl)ncn2)c(OC)cc1N1CCC(N2CC[C@@H](N(C)C)C2)CC1 [compound 610, N-(5-((6-((R)-3-(2,3-dichlorophenyl)isoxazolidine-2-yl)pyrimidine-4-yl)amino)-2-(4-((R)-3-(dimethylamino)pyrolidine-1-yl)piperidine-1-yl)-4-methoxyphenyl) acrylamide] |
| A (GI50 < 50 nM) | C=CC(=O)Nc1cc(Nc2cc(N3OCC[C@@H]3c3cccc(F)c3Cl)ncn2)c(OC)cc1N1CCC(N2CCN(C3CC3)C[C@@H]2C)CC1 [Example 144, N-(5-((6-((R)-3-(2-chloro-3-fluorophenyl)isoxazolidine-2-yl)pyrimidine-4-yl)amino)-2-(4-((S)-4-cyclopropyl-2-methylpiperazine-1-yl)piperidine-1-yl)-4-methoxyphenyl) acrylamide] |

— US12157730B2, “Heteroaryl derivative, method for producing same, and pharmaceutical composition comprising same as effective component” (VORONOI INC., priority 2019, dated 2024)
